Results reported in patent EP1561465A2, “Methods of use of fluoroquinolone compounds against bacteria” (LG Life Sciences, Ltd., priority 1999, dated 2001).
Converted amounts (≈) assume the structure as drawn.

Experiments:
Format in all cases: cell-based
Staphylococcus aureus = test: microbe, parasite or virus in culture
Escherichia coli = test: MIC by NCCLS broth microdilution, 1100 Japanese clinical isolates 1997-1998; conditions: for MIC50 / MIC90: Escherichia coli
[1] = test system: Staphylococcus epidermidis; test: as above; conditions: for MIC50 / MIC90: Staphylococcus epidermidis
Streptococcus pneumoniae = test: MIC by broth microdilution (NCCLS), dried MicroScan panels, clinical isolates 1998-1999; conditions: for MIC90: Streptococcus pneumoniae
Yersinia enterocolitica = test: MIC by agar dilution (NCCLS M7-A4), 288 enteropathogenic isolates, eight quinolones; conditions: Yersinia enterocolitica (n = 22)
Acinetobacter spp. = test: MIC by agar dilution (NCCLS), 322 nosocomial Gram negative isolates, Athens 1998; conditions: n = 38 strains
Haemophilus influenzae = test: MIC by agar dilution (NCCLS), 411 isolates Buenos Aires 1998-99; conditions: Haemophilus influenzae (n = 65)
Streptococcus pyogenes = test: as above; conditions: Streptococcus pyogenes (n = 69)
[2] = Staphylococcus aureus, S. aureus KU2240, mutant type Wild (wild strain)
[3] = Staphylococcus aureus, S. aureus KU2243, mutant type G+T (DNA gyrase and topoisomerase IV)
[4] = Staphylococcus aureus, S. aureus KU2246, mutant type T (DNA topoisomerase IV)
[5] = Escherichia coli ciprofloxacin susceptible (n=37)
[6] = Escherichia coli ciprofloxacin resistant (n=5)
[7] = Escherichia coli ciprofloxacin resistant (n=5), values marked *: MIC80 value
[8] = Staphylococcus epidermidis oxacillin susceptible (n=35)
[9] = Staphylococcus epidermidis oxacillin resistant (n=43)
[10] = Streptococcus pneumoniae (302 isolates)

Compound	MIC (Staphylococcus aureus; [2])	MIC (Staphylococcus aureus; [3])	MIC (Staphylococcus aureus; [4])	MIC Range (Escherichia coli; [5])	MIC50 (Escherichia coli; [6])	MIC90 (Escherichia coli; [7])	MIC50 (Escherichia coli; [5])	MIC90 (Escherichia coli; [5])	MIC Range [1, 8]	MIC50 [1, 9]	MIC90 [1, 9]	MIC50 [1, 8]	MIC90 [1, 8]	MIC50 (Streptococcus pneumoniae; [10])	MIC Range (Streptococcus pneumoniae; [10])	MIC90 (Streptococcus pneumoniae; Erythromycin-resistant (86))	MIC90 (Streptococcus pneumoniae; Erythromycin-sensitive (216))	MIC90 (Streptococcus pneumoniae; Penicillin-intermediate (124))	MIC90 (Streptococcus pneumoniae; Penicillin-resistant (80))	MIC90 (Streptococcus pneumoniae; Penicillin-sensitive (98))	also measured
NC1CCN(c2nc3c(cc2F)c(=O)c(C(=O)O)cn3-c2ccc(F)cc2F)C1 (stereo not drawn) [Tosufloxacin, tosufloxacin]	0.063 µg/mL (≈ 0.156 µM)	> 128 µg/mL	0.5 µg/mL (≈ 1.24 µM)	≤0.008 to 0.25 µg/mL	32 µg/mL (≈ 79.1 µM)	32 µg/mL (≈ 79.1 µM)	0.032 µg/mL (≈ 0.0791 µM)	0.032 µg/mL (≈ 0.0791 µM)	0.032 to 16 µg/mL	8 µg/mL (≈ 19.8 µM)	> 16 µg/mL	0.063 µg/mL (≈ 0.156 µM)	4 µg/mL (≈ 9.89 µM)	–	–	–	–	–	–	–	MIC (Staphylococcus aureus; Staphylococcus aureus, S. aureus KU2241, mutant type NorA (efflux-mediated quinolone resistant)): 0.125 µg/mL (≈ 0.309 µM); MIC (Staphylococcus aureus; Staphylococcus aureus, S. aureus KU2242, mutant type T (DNA topoisomerase IV)): 0.25 µg/mL (≈ 0.618 µM); MIC (Staphylococcus aureus; Staphylococcus aureus, S. aureus KU2244, mutant type G (DNA gyrase)): 0.125 µg/mL (≈ 0.309 µM)
Cc1c(F)c(N2CCNC(C)C2)cc2c1c(=O)c(C(=O)O)cn2C1CC1 (stereo not drawn) [Grepafloxacin, grepafloxacin]	–	–	–	–	–	–	–	–	–	–	–	–	–	0.03 µg/mL (≈ 0.0835 µM)	≤0.015 to 0.25 µg/mL	0.12 µg/mL (≈ 0.334 µM)	0.25 µg/mL (≈ 0.696 µM)	0.12 µg/mL (≈ 0.334 µM)	0.12 µg/mL (≈ 0.334 µM)	0.12 µg/mL (≈ 0.334 µM)	MIC90 (Streptococcus pneumoniae; [10]): 0.12 µg/mL (≈ 0.334 µM); % Susceptible (Yersinia enterocolitica): 100%; MIC50 (Yersinia enterocolitica): 0.03 µg/mL (≈ 0.0835 µM); MIC90 (Yersinia enterocolitica): 0.03 µg/mL (≈ 0.0835 µM); MIC Range (Yersinia enterocolitica): ≤0.015 to 0.25 µg/mL; MIC50 (Acinetobacter spp.; Acinetobacter): 2 µg/mL (≈ 5.56 µM); MIC90 (Acinetobacter spp.; Acinetobacter): 64 µg/mL (≈ 178 µM); MIC Range (Acinetobacter spp.): ≤0.03 to 64 µg/mL
C[C@H]1COc2c(N3CCN(C)CC3)c(F)cc3c(=O)c(C(=O)O)cn1c23 [Levofloxacin, levofloxacin]	0.25 µg/mL (≈ 0.692 µM)	> 128 µg/mL	1 µg/mL (≈ 2.77 µM)	≤0.008 to 0.25 µg/mL	16 µg/mL (≈ 44.3 µM)	16 µg/mL (≈ 44.3 µM)	0.032 µg/mL (≈ 0.0886 µM)	0.063 µg/mL (≈ 0.174 µM)	0.063 to 8 µg/mL	4 µg/mL (≈ 11.1 µM)	8 µg/mL (≈ 22.1 µM)	0.25 µg/mL (≈ 0.692 µM)	4 µg/mL (≈ 11.1 µM)	1 µg/mL (≈ 2.77 µM)	≤0.015 to 2 µg/mL	1 µg/mL (≈ 2.77 µM)	2 µg/mL (≈ 5.53 µM)	1 µg/mL (≈ 2.77 µM)	1 µg/mL (≈ 2.77 µM)	1 µg/mL (≈ 2.77 µM)	MIC Range (Staphylococcus aureus; Methicillin-resistant (38)): 0.25 to 128 µg/mL; MIC Range (Staphylococcus aureus; Methicillin-susceptible (9)): 0.125 to 1 µg/mL; MIC50 (Staphylococcus aureus; Staphylococcus aureus, Methicillin-resistant (38)): 8 µg/mL (≈ 22.1 µM); MIC90 (Staphylococcus aureus; Staphylococcus aureus, Methicillin-susceptible (9), read-out: MIC90): 1 µg/mL (≈ 2.77 µM); MIC (Staphylococcus aureus; Staphylococcus aureus, S. aureus KU2245, mutant type G+T (DNA gyrase and topoisomerase IV)): 32 µg/mL (≈ 88.6 µM); MIC90 (Haemophilus influenzae): 0.016 µg/mL (≈ 0.0443 µM); MIC Range (Haemophilus influenzae): ≤0.004 to 0.25 µg/mL; MIC Range (Escherichia coli; [6]): 4 to 128 µg/mL; MIC90 (Streptococcus pneumoniae; [10]): 1 µg/mL (≈ 2.77 µM); MIC Range [1, 9]: 0.25 to 16 µg/mL; MIC Range (Streptococcus pyogenes): 0.25 to 2 µg/mL; % Susceptible (Yersinia enterocolitica): 100%; MIC50 (Yersinia enterocolitica): 0.06 µg/mL (≈ 0.166 µM); MIC90 (Yersinia enterocolitica): 0.06 µg/mL (≈ 0.166 µM); MIC Range (Yersinia enterocolitica): 0.03 to 0.5 µg/mL
